Experiments:
h5-HT7R = h5-HT7R (Homo sapiens (Human), UniProt P34969); test: ERK1/2 and c-SRC phosphorylation by western blot in HEK-293 cells stably expressing h5-HT7R; type: cell-based
Method: (A, B, C, D, E, F) Time course of activation of ERK1/2 after stimulation of HEK-293 cells stably expressing h5-HT7R with various 5-HT7R ligands used at 10 μM. The cells were stimulated for the indicated periods and assayed for detection of phospho ERK1/2 by western blot analysis. […] Representative blots of three independent experiments are illustrated. The histogram on the right of each panel represents the results of densitometric analyses of three independent experiments. Data are means±SEM. * p<0.05; ** p<0.01; *** p<0.001 versus non stimulated cells (NS).
HEK-293 cells stably expressing h5-HT7R were stimulated with increasing concentrations of 5-CT or Serodolin for 7 minutes. Cells were lysed, and western blot analysis was performed. Representative Western blots from three independent experiments were shown in A-C. Quantification was performed by densitometric analyses from three independent experiments. Analyzed data were plotted versus log concentration for each compounds (A; B) or as bar graph (C) on the right panel.
Time course of activation of ERK1/2 after stimulation of HEK-293 cells stably expressing h5-HT7R with JLB060, a 5-HT7R ligand used at 10 μM. The cells were stimulated for the indicated periods and assayed for detection of phospho ERK1/2 by western blot analysis.
(§1) Treated cells were washed twice with cold PBS and lysed on ice for 30 min in lysis buffer containing 50 mM Tris pH 7.5, 150 mM NaCl, 10 mM EDTA, 1% Triton X-100 and the protease inhibitor cocktail. Cell lysates were centrifuged at 10,000×g for 10 min. Supernatant was then solubilized in Laemmli buffer with 0.1% β-mercaptoethanol. Samples were resolved by electrophoresis on 10% SDS-PAGE, and transferred electrophoretically to polyvinylidene fluoride (PVDF) membranes (GE Healthcare Life Sciences). […] membranes were washed in Tris-buffered saline (TBS; pH 7.4) containing 0.1% Tween-20 (TBS-T; 0.1%) and blocked with 5% (w/v) dry milk TBS-T 0.1% for 30 min. […] Blots were probed with anti-arrestin, anti-Phospho-ERK or anti-ERK antibody (1:2000), anti Phospho-SRC, anti SRC antibody, anti-HA or anti-GFP or anti-actin antibodies. Horseradish-peroxidase-conjugated goat anti-rabbit, anti-mouse or anti-rat antibodies (1:33,000) were used as secondary antibodies. Immunoreactive bands were detected using the Dura detection kit. Protein quantification on blots was performed using Quantity One software (Biorad).
as §1, with “12%” for “10%”, “with” for “with anti-arrestin,”, “anti-Phospho-ERK (1:2000)” for “anti-Phospho-ERK”, “anti-GAPDH” for “anti-ERK”, “(1:5000). […]” for “(1:2000), anti Phospho-SRC, anti SRC antibody, anti-HA or anti-GFP or anti-actin antibodies. Horseradish-peroxidase-conjugated goat anti-rabbit, anti-mouse or anti-rat antibodies (1:33,000) were used as secondary antibodies.”
ERK phosphorylation was monitored by western blotting after treatment of cells with 10 μM of ligands at different times ranging from 2 to 60 minutes.

mice = test: MOG-induced experimental autoimmune encephalomyelitis (EAE) model; type: in vivo; details: 1 mg/kg, ip, day 8 to day 18
Description: FIG. 12: Evaluation of the therapeutic potential of Serodolin in EAE model. A/Serodolin has been administrated for 10 days from day 8 after immunization. After 18 days post-immunization, myelin staining and cell infiltration have been evaluated in 3 groups of mice (non-immunized NI, Vehicle-treated mice or Serodolin-treated mice. B/Immunolabeling of astrocytes (GFAP) and microglia (Iba1) performed in all groups. Quantifications used Image J software. **p<0.01 *p<0.05.
Autoimmune experimental encephalomyelitis (EAE) model. For EAE model, the pathology was induced by subcutaneous injection of an emulsion of MOG35-55 peptide in complete Freund's adjuvant as previously described (Terry, Ifergan, & Miller, 2016). The mice were scored blindly once a day starting at Day 7 postimmunization until Day 30 according to the following scale: 0.0=no obvious changes in motor function; 0.5=tip of tail is limp; 1.0=limp tail; 1.5=limp tail and hind leg inhibition; 2.0=limp tail and weakness of hind legs or signs of head tilting; 2.5=limp tail and dragging of hind legs or signs of head tilting; 3.0=limp tail and complete paralysis of hind legs or limb tail with paralysis of one front and one hind leg; 3.5=limp tail and complete paralysis of hind legs and animal unable to right itself when placed on its side; 4.0=limb tail, complete hind leg, and partial front leg paralysis with minimal moving and feeding. Drugs were administered at the onset of clinical symptoms (Day 8) until Day 18 after immunization. Serodolin (1 mg/kg, ip) or vehicle was daily administered. Mice were given Ketamine/Xylasine anaesthesia and then intracardiacally perfused first with PBS EDTA for 20-30 min and then with PFA (paraformaldehyde) 4% for 20-30 min. Spinal cords were removed and incubated first in PFA 4% for 48-72 h and then in sucrose 30% Organ was included in TFM (Tissue freezing media) and snap frozen using isopentane and dry ice. Spinal cord were cut on 14 μm thick sections using Leica CM3050 S Research Cryostat for immunohistochemistry experiments.
The inventors considered that Serodolin could have some benefit effects on some chronic inflammatory processes, like those observed in MS. Myelin oligodendrocyte glycoprotein (MOG)-induced murine experimental autoimmune encephalomyelitis (EAE) is a widely accepted model for studying the clinical and pathological features of multiple sclerosis. After MOG induction of EAE (9 animals/group), the effect of AIC-01 injection was tested for […] (1 mg/kg, ip from day 8 to day 18 after MOG induction). Each animal was assessed by a behavioural test based on motor functions, and an EAE score was obtained. […] Histopathological characteristics performed after MOG-induction allowed to decipher Serodolin effect at molecular and cellular levels. […]

Chain of h5-HT7R (P34969 1-432): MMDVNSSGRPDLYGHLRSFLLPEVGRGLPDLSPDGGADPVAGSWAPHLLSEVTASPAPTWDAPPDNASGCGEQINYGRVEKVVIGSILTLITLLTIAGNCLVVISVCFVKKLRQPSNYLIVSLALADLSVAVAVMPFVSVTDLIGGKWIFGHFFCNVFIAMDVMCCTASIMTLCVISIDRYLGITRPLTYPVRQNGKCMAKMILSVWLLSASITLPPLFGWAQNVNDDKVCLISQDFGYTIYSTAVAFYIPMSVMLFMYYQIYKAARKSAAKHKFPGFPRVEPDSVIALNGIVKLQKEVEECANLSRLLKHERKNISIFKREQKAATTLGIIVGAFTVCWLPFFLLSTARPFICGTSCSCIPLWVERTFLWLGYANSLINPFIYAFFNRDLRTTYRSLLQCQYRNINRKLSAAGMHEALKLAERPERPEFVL

## O=c1[nH]c2ccccc2n1CN1CCN(c2ccc(F)cc2)CC1 [Serodolin]
h5-HT7R; 10 μM of ligand or increasing concentrations, western blot
  induction of ERK phosphorylation: concentration-dependent increase of ERK phosphorylation
h5-HT7R; 10 μM of ligand, 2 to 60 minutes
  ERK phosphorylation at the maximal effect: 409±34 % of control
h5-HT7R; western blot, 7 minutes
  phosphorylation of c-SRC kinase at Tyr416: induced only after activation of 5-HT7R by Serodolin
mice
  EAE score / onset of symptoms: tended to show a delay in the onset of symptoms
  astrocytes and microglia staining: significantly decreased
  cell infiltration (DAPI): reduces cell infiltration
  myelin staining, increase over vehicle-treated animals: 65%

— patent US20240199555A1, “APPLICATIONS OF BIASED LIGANDS OF THE SEROTONIN 5-HT7 RECEPTOR FOR THE TREATMENT OF PAIN, MULTIPLE SCLEROSIS AND THE CONTROL OF THERMOREGULATION” (Centre National de la Recherche Scientifique, priority 2021, published 2024)
